# Assay results from PubChem BioAssay (NCI).
#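 All cell lines were grown in 96-well plates and treated with compound for 48 hours. TGI: total growth inhibition.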
# Legend:
# Test in all cases: NCI-60 cell line screen, 48 h
# 786-0 renal = test system: 786-0 renal
# A498 renal = test system: A498 renal
# BT-549 breast = test system: BT-549 breast
# HCT-116 colon = test system: HCT-116 colon
# HL-60(TB) leukemia = test system: HL-60(TB) leukemia
# HOP-92 NSCLC = test system: HOP-92 NSCLC
# HT29 colon = test system: HT29 colon
# MDA-N = test system: MDA-N
# NCI-H23 lung = test system: NCI-H23 lung
# NCI-H460 lung = test system: NCI-H460 lung
# OVCAR-3 ovarian = test system: OVCAR-3 ovarian
# OVCAR-4 ovarian = test system: OVCAR-4 ovarian
# RPMI-8226 leukemia = test system: RPMI-8226 leukemia
# SF-295 CNS = test system: SF-295 CNS
# SK-MEL-2 melanoma = test system: SK-MEL-2 melanoma
# SK-MEL-5 melanoma = test system: SK-MEL-5 melanoma
# SN12C renal = test system: SN12C renal
# U251 CNS = test system: U251 CNS
# UACC-257 melanoma = test system: UACC-257 melanoma
# NCI-H522 lung = test system: NCI-H522 lung
SMILES,TGI (786-0 renal) [µM],TGI (A498 renal) [µM],TGI (BT-549 breast) [µM],TGI (HCT-116 colon) [µM],TGI (HL-60(TB) leukemia) [µM],TGI (HOP-92 NSCLC) [µM],TGI (HT29 colon) [µM],TGI (MDA-N) [µM],TGI (NCI-H23 lung) [µM],TGI (NCI-H460 lung) [µM],TGI (OVCAR-3 ovarian) [µM],TGI (OVCAR-4 ovarian) [µM],TGI (RPMI-8226 leukemia) [µM],TGI (SF-295 CNS) [µM],TGI (SK-MEL-2 melanoma) [µM],TGI (SK-MEL-5 melanoma) [µM],TGI (SN12C renal) [µM],TGI (U251 CNS) [µM],TGI (UACC-257 melanoma) [µM],TGI (NCI-H522 lung) [µM]
Cc1ccc(S(=O)(=O)N2CCSCCSCCSCCN(S(=O)(=O)c3ccc(C)cc3)CC2)cc1,> 100,> 100,> 100,> 100,> 100,> 100,> 100,> 100,> 100,> 100,> 100,> 100,> 100,> 100,> 100,> 100,> 100,> 100,> 100,–
CN(N=O)c1nc2c(C(N)=O)ncn2s1,> 100,> 100,> 100,> 100,–,> 100,> 100,> 100,> 100,> 100,> 100,> 100,> 100,> 100,> 100,> 100,> 100,> 100,> 100,> 100
O=C1NC2(CCNCC2)Oc2ccccc21,> 100,–,> 100,> 100,> 100,> 100,> 100,> 100,> 100,> 100,> 100,> 100,> 100,> 100,> 100,> 100,> 100,> 100,> 100,> 100
Cc1c(/C=N/NC(=S)N2CCCCC2)c(=O)n(-c2ccccc2)n1C,> 100,> 100,> 100,> 100,95,> 100,> 100,> 100,> 100,> 100,> 100,–,> 100,> 100,–,> 100,–,> 100,> 100,> 100
CC(C)[C@H]1NC(=O)[C@H]2N=C(S[C@H]2C)[C@@H]2CCCN2C(=O)[C@H](Cc2ccccc2)NC(=O)[C@@H]2CSC(=N2)[C@@H](Cc2ccccc2)NC(=O)[C@@H]2CSC1=N2,> 50,41.7,> 50,> 50,16.3,–,> 50,> 50,> 50,–,> 50,> 50,19.8,> 50,> 50,> 50,> 50,> 50,> 50,45
COc1cc([C@@H]2c3cc4c(cc3[C@@H](Nc3ccc(Cl)cc3C(=O)c3ccccc3)[C@H]3COC(=O)[C@H]23)OCO4)cc(OC)c1OC,> 100,5.27,> 100,> 100,1.09,–,–,> 93.6,> 29.6,> 100,> 100,> 100,> 100,–,> 100,16,> 100,0.576,> 100,0.918
COC(=O)/C=C/[C@@H]1[C@H](C)N1S(=O)(=O)c1ccc(C)cc1 (some centres undefined),> 100,> 100,> 100,> 100,> 100,–,> 100,> 100,> 100,> 100,> 100,> 100,> 100,> 100,> 100,> 100,> 100,> 100,> 100,> 100
CC(=O)[C@H]1[C@H](O)C[C@@]2(C)[C@@H]3CCc4cc(O)c(OC5OC(CO)C(O)C(O)C5O)cc4C3(C)C(=O)C[C@]12C (some centres undefined),> 100,> 100,> 100,> 100,> 100,> 100,> 100,> 100,> 100,> 100,> 100,> 100,–,> 100,> 100,> 100,> 100,> 100,> 100,> 100
C[C@@H]1CC[C@H]2[C@H](C)C(OC3O[C@@H]4O[C@@]5(C)CC[C@H]6[C@H](C)CC[C@@H]([C@@H]3C)[C@@]46O5)O[C@@H]3O[C@@]4(C)CC[C@@H]1[C@]32O4 (some centres undefined),> 100,> 100,> 100,> 100,> 100,–,> 100,> 100,> 100,> 100,> 100,> 100,> 100,> 100,> 100,> 100,> 100,> 100,> 100,> 100
Cc1cc(O)c(/C=N/C(=S)Nc2ccc(S(N)(=O)=O)cc2)c(=O)o1,> 100,> 100,> 100,> 100,> 100,> 100,> 100,> 100,> 100,> 100,> 100,> 100,–,> 100,> 100,> 100,> 100,> 100,> 100,–
Cc1ccc(-c2cc(-c3ccc(Cl)cc3)nc(/N=C3\C(=O)N(CN(C)C)c4ccccc43)n2)cc1,> 100,> 100,> 100,> 100,26.2,> 100,> 100,43.9,> 100,> 100,> 100,> 100,–,> 100,> 100,> 100,> 100,> 100,94.7,69.4
CCc1n[nH]c(=O)n1/N=C(\C)c1ccccc1,> 100,> 100,> 100,> 100,> 100,–,> 100,> 100,> 100,–,> 100,> 100,> 100,> 100,> 100,> 100,> 100,> 100,> 100,> 100
Cc1sc2nc3n(c(=O)c2c1C)N=CN(c1ccc(Cl)cc1)C3,> 100,> 100,> 100,> 100,–,> 100,> 100,> 100,> 100,> 100,> 100,> 100,> 100,> 100,> 100,> 100,> 100,> 100,> 100,> 100
O=C(Nc1ccccc1)Oc1ccc(C(=S)Nc2ccc(Br)cc2)cc1,52.2,54.5,36.6,37.2,30.3,–,34.7,47.2,37.2,59.3,52.8,86.3,> 100,84.3,47.8,31.1,–,56.1,67.1,29.5
Cc1ccc(S(=O)(=O)N2CCNCCN(S(=O)(=O)c3ccc(C)cc3)CCNCC2)cc1,33.7,47,47.1,28.5,25.4,46.7,30.2,40.9,> 100,36.8,27.7,82.4,–,32,41.9,29.9,> 100,41.1,33,36.5
CC(C)OP(=O)(OC(C)C)C(C)(C)O,> 100,–,> 100,> 100,> 100,> 100,> 100,> 100,> 100,–,> 100,> 100,> 100,> 100,> 100,> 100,> 100,> 100,> 100,> 100
COc1cc(C2c3cc4c(cc3C(=O)C3CCC(=O)N32)OCO4)cc(OC)c1O (centres undefined),> 50,> 50,> 50,> 50,> 50,> 50,> 50,> 50,> 50,> 50,> 50,> 50,> 50,> 50,> 50,–,> 50,> 50,> 50,–
O=C(NCCNCCNC(=O)c1cc(-c2ccccc2)nc2ccccc12)c1cc(-c2ccccc2)nc2ccccc12,3.39,6.54,28.6,3.18,5,6.17,3.24,3.42,22.3,2.97,5.73,5.98,–,3.28,3.13,3.18,7.59,4.07,3.92,6.97
Nc1ccccc1C(=O)N=Nc1c(O)[nH]c2ccccc12,> 100,> 100,> 100,> 100,–,–,> 100,> 100,> 100,> 100,> 100,> 100,–,> 100,> 100,> 100,> 100,> 100,> 100,> 100
Cc1ccc(S(=O)(=O)N/N=C2/CCC3(O)CC2(C)CCC2[C@H]3CC2(C)C)cc1 (some centres undefined),> 100,–,86.4,75.7,> 100,87.6,99.5,92,83.5,64.3,> 100,> 100,> 100,93,69.2,33.1,> 100,36,> 100,91.9
O=c1c(Sc2c(SCSc3cnc4ccccc4c3Sc3c[nH]c4ccccc4c3=O)cnc3ccccc23)c[nH]c2ccccc12,> 100,–,> 100,> 100,> 100,> 100,> 100,> 100,> 100,> 100,> 100,> 100,> 100,> 100,–,> 100,> 100,> 100,> 100,> 100
COc1ccccc1N/C(SCc1ccccc1)=C(/C(Cl)=C(Cl)Cl)[N+](=O)[O-],97.8,> 100,32.9,> 100,–,–,42.4,> 100,31.7,> 100,40.7,47.7,88.2,59.6,> 100,–,47.3,47.3,> 100,–
NC(=O)[N+](=CC(=S)Nc1ccccc1Cl)C(N)=O,> 100,–,> 100,> 100,> 100,> 100,> 100,> 100,> 100,> 100,> 100,> 100,> 100,> 100,> 100,> 100,> 100,> 100,> 100,> 100
Cc1ccc(-c2cn3c(nc4ccccc43)c(/C=C/c3ccco3)n2)cc1,> 100,> 100,> 100,> 100,> 100,> 100,> 100,> 100,> 100,> 100,> 100,> 100,67.7,–,72.9,> 100,> 100,> 100,> 100,–
